Values joined by “and” are separate entries in the source; they are usually repeats but may differ in a detail not shown here. Equal values may be shown once.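 Grown in 96-well plates, cells were treated for 48 hours with each compound at five concentrations. Insufficient inhibition: endpoint recorded as highest concentration tested. Here, GI50 denotes the concentration required for 50% inhibition of growth.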 Active and inactive are the calls of the source. Rule as the data show it: active = GI50 up to about 1.1 µM and inactive = higher. Where only a bound is given, the exact number is not on record here.

Some test systems named below: SF-539; NCI-H23; A549; NCI/ADR-RES; MOLT-4; NCI-H460; Malme-3M; HT-29; BT-549; IGROV-1; HCT-116; OVCAR-8; MDA-MB-435; OVCAR-4; HOP-92; RXF 393; EKVX; SNB-19; HCT-15; SK-MEL-5.
Holding throughout (test): NCI tumour cell line growth inhibition, 48 h

As to `CCCCCCCCCCCCCC(=O)OC(/C=C/C(C)C)C(O)C(O)C(OC)C(=O)NC1CCCCNC1=O` (stereo not given), the GI50 was 1.38 µM (inactive) in the assay with SF-539; 1.2 µM (inactive) in the assay with NCI-H23; 0.257 µM (active) in the assay with A549; > 10 µM (inactive) with NCI/ADR-RES; 0.57 µM (active) with MOLT-4; 0.0906 µM (active) in the assay with NCI-H460. In addition, the GI50 was 2.02 µM (inactive) in the assay on Malme-3M; 0.927 µM (active) with HT-29; > 10 µM (inactive) in the assay on BT-549; 0.527 µM (active) in the assay on IGROV-1; 0.242 µM (active) in the assay with HCT-116; 1.02 µM (active) in the assay on OVCAR-8. For the same compound, the GI50 with MDA-MB-435 was 5.97 µM (inactive); in the assay on OVCAR-4 it was 1.86 µM (inactive); in the assay on HOP-92 it was 1.17 µM (inactive); in the assay on RXF 393 it was 0.789 µM (active); in the assay with EKVX, 3.82 µM (inactive); in the assay with SNB-19, 0.815 µM (active). Moreover, the GI50 in the assay with HCT-15 was 1.43 µM; with SK-MEL-5, 1.9 µM (inactive).

As to `COc1cccc(NCC(=O)Nn2c(-c3ccccc3)nc3ccccc3c2=O)c1`, the GI50 in the assay on SF-539, in the assay with NCI-H23, in the assay with A549, in the assay with NCI/ADR-RES, in the assay with MOLT-4 and in the assay with NCI-H460 was > 100 µM (inactive) in each case. Also, the GI50 with Malme-3M was > 100 µM (inactive); in the assay with HT-29, > 100 µM (inactive); in the assay with BT-549, > 100 µM (inactive); in the assay with IGROV-1, 64.4 µM (inactive); in the assay on HCT-116, > 100 µM (inactive); in the assay with OVCAR-8, > 100 µM (inactive). The GI50 in the assay on MDA-MB-435 was > 100 µM (inactive); in the assay with OVCAR-4, > 100 µM (inactive); with HOP-92, 49.3 µM (inactive); in the assay on RXF 393 it was > 100 µM (inactive); in the assay on EKVX, 91.6 µM (inactive); in the assay on SNB-19 it was > 100 µM (inactive). Moreover, the GI50 in the assay with HCT-15 was greater than 100 µM; in the assay with SK-MEL-5, 57.7 µM (inactive).

For the compound `CC1(C)CCC[C@]2(C)[C@@H]1CC[C@@]13O[C@@H]1C1=C(CO)C(=O)O[C@]14O[C@@H]4[C@@H]23`, the GI50 was 17.3 µM (inactive) in the assay with SF-539; 11.7 µM (inactive) in the assay with NCI-H23; 7.98 µM (inactive) with A549; 14.9 µM (inactive) with NCI/ADR-RES; 15.1 µM (inactive) with MOLT-4; 14.9 µM (inactive) with NCI-H460. Further, the GI50 is 17 µM (inactive) in the assay with Malme-3M; 12.4 µM (inactive) in the assay with HT-29; 14.7 µM (inactive) in the assay with BT-549; 13.3 µM (inactive) with IGROV-1; 12.4 µM (inactive) in the assay with HCT-116; 12.9 µM (inactive) in the assay with OVCAR-8. Further, the GI50 with MDA-MB-435 is 10.4 µM (inactive); with OVCAR-4 it was 8.24 µM (inactive); with HOP-92 it was 14 µM (inactive); in the assay on RXF 393 it was 8.71 µM (inactive); in the assay on EKVX, 11.9 µM (inactive); in the assay on SNB-19 it was 14.8 µM (inactive). For the same compound, the GI50 in the assay on HCT-15 is 14.5 µM; in the assay with SK-MEL-5, 13.2 µM (inactive).

Consider `COc1cc([C@@H]2c3cc4c(cc3[C@@H](Nc3ccc(/N=C\c5ccc(C(=O)O[C@@H](C(=O)O[C@H]6C[C@@]7(O)[C@@H](OC(=O)c8ccccc8)[C@@H]8[C@]9(OC(C)=O)CO[C@@H]9C[C@H](O)[C@@]8(C)C(=O)[C@H](OC(C)=O)C(=C6C)C7(C)C)[C@@H](NC(=O)c6ccccc6)c6ccccc6)cc5)cc3)[C@H]3COC(=O)[C@H]23)OCO4)cc(OC)c1O`, for which the GI50 in the assay on SF-539 is 1.47 µM (inactive); in the assay on NCI-H23, 2.75 µM (inactive); in the assay with A549, 0.721 µM (active); in the assay with NCI/ADR-RES, > 45.8 µM (inactive); in the assay on MOLT-4, 0.14 µM (active); with NCI-H460, 0.113 µM (active). The GI50 is > 50 µM (inactive) with Malme-3M; 9.04 µM (inactive) in the assay with HT-29; 9.48 µM (inactive) in the assay with BT-549; 12.4 µM (inactive) in the assay on IGROV-1; 3.28 µM (inactive) in the assay on HCT-116; 6.15 µM (inactive) with OVCAR-8. In addition, the GI50 with MDA-MB-435 was 0.208 µM (active); in the assay with OVCAR-4 it was > 50 µM (inactive); in the assay with HOP-92, 6.38 µM (inactive); in the assay with RXF 393, 6.12 µM (inactive); in the assay on EKVX, 16.3 µM (inactive); in the assay on SNB-19, 2.48 µM (inactive). The results for the GI50 in the assay with HCT-15 and with SK-MEL-5 were 7.96 µM and 2.96 µM (inactive), respectively.

As to `CC(C)=CCC(O)[C@](C)(O)[C@H]1[C@H](O)C[C@@]2(C)[C@@H]3CCc4cc(O)c(OC5OC(CO)C(O)C(O)C5O)cc4C3(C)C(=O)C[C@]12C` (stereo not given in full), the GI50 in the assay on SF-539, in the assay on NCI-H23, with A549, in the assay on NCI/ADR-RES, in the assay with MOLT-4 and with NCI-H460 was > 100 µM (inactive) throughout. The GI50 was > 100 µM (inactive) in the assay with Malme-3M; > 100 µM (inactive) with HT-29; > 100 µM (inactive) in the assay with BT-549; 89.3 µM (inactive) in the assay on IGROV-1; > 100 µM (inactive) in the assay on HCT-116; > 100 µM (inactive) in the assay on OVCAR-8. In addition, the GI50 in the assay on MDA-MB-435, with OVCAR-4, in the assay with HOP-92, in the assay with RXF 393, in the assay with EKVX and with SNB-19 was > 100 µM (inactive) in each case. The values for the GI50 in the assay on HCT-15 and with SK-MEL-5 were greater than 100 µM and > 100 µM (inactive), respectively.

In the case of `O=C1C(Cl)C2(CC(/C=C/c3ccccc3)=NN2c2cccc(S(=O)(=O)O)c2)N1c1nc2ccccc2s1` (stereo not given), the GI50 in the assay with SF-539 was 15.3 µM (inactive); in the assay on NCI-H23 it was 13.2 µM (inactive); with A549, 15.3 µM (inactive); with NCI/ADR-RES, 28.2 µM (inactive); in the assay on MOLT-4, 20.7 µM (inactive); in the assay on NCI-H460, 22.8 µM (inactive). Also, the GI50 in the assay on Malme-3M was 17.3 µM (inactive); in the assay on HT-29, 19.4 µM (inactive); in the assay on BT-549, 14.8 µM (inactive); in the assay with IGROV-1, 8.55 µM (inactive); with HCT-116 it was 21.1 µM (inactive); in the assay on OVCAR-8, 11.9 µM (inactive). The GI50 in the assay with MDA-MB-435 is 21.4 µM (inactive); in the assay with OVCAR-4, 16.4 µM (inactive); with HOP-92, 11.7 µM (inactive); with RXF 393 it was 7.83 µM (inactive); with EKVX, 19.2 µM (inactive); in the assay with SNB-19, 25.2 µM (inactive). Besides, the GI50 with HCT-15 was 15.9 µM; in the assay on SK-MEL-5, 15.5 µM (inactive).

Take `CC(C)(C)OC(=O)N1C(OP(=O)(Oc2ccccc2)Oc2ccccc2)=COc2cccnc21`: the GI50 in the assay on SF-539 is > 100 µM (inactive); with NCI-H23, 45.5 µM (inactive); with A549, 46.6 µM (inactive); with NCI/ADR-RES it was 40.7 µM (inactive); in the assay on MOLT-4, 17.7 µM (inactive); in the assay on NCI-H460, 31.8 µM (inactive). The GI50 in the assay on Malme-3M is 30.6 µM (inactive); in the assay on HT-29, 82.6 µM (inactive); in the assay with BT-549, 63.7 µM (inactive); in the assay on IGROV-1, 42.6 µM (inactive); with HCT-116 it was 51.2 µM (inactive); in the assay on OVCAR-8, 43.2 µM (inactive). Moreover, the GI50 in the assay on MDA-MB-435 was 39.4 µM (inactive); in the assay on OVCAR-4, 45.8 µM (inactive); with HOP-92, 26.1 µM (inactive); in the assay with RXF 393, 91.8 µM (inactive); in the assay with EKVX, 60.7 µM (inactive); in the assay on SNB-19 it was 78.9 µM (inactive). For the same compound, the GI50 in the assay with HCT-15 is 48.8 µM; in the assay on SK-MEL-5 it was 18.4 µM (inactive).

As to `NCCOCC(N)C(=O)O` (stereo not given), the GI50 in the assay with SF-539, in the assay with NCI-H23, in the assay on A549, in the assay on NCI/ADR-RES, with MOLT-4 and in the assay with NCI-H460 was > 100 µM (inactive) throughout. Further, the GI50 in the assay on Malme-3M, in the assay on HT-29, in the assay with BT-549, in the assay on IGROV-1, in the assay with HCT-116 and in the assay with OVCAR-8 was > 100 µM (inactive) in each case. Moreover, the GI50 in the assay with MDA-MB-435, with OVCAR-4, with HOP-92, in the assay on RXF 393, in the assay with EKVX and in the assay on SNB-19 was > 100 µM (inactive) throughout. Also, the GI50 was greater than 100 µM with HCT-15; > 100 µM (inactive) and > 95.7 µM (inactive) with SK-MEL-5.

Values taken from ChEMBL document CHEMBL1201862, “PubChem BioAssay data set” (2004).
